# Test results from patent US20200354426A1 (MEDIMMUNE LIMITED, priority 2016, published 2020).
# “And” between values parts separate entries of the source, which are not always exact repeats. Identical values can stand only once. Numbered stars: 1 amine (or outer) side, 2 acyl side, 3 side chain; on linkers, the order of the positions; unused ones are H or OH. Side chains are listed from the residue outwards. Ends that are not written are not given here. Peptide text beside a SMILES is read from it. * marks the point of attachment. γGlu = O=C(O)[C@H](CCC(=O)[*:2])N[*:1]; Palmitoyl = CCCCCCCCCCCCCCCC(=O)*; Ahx = NCCCCCC(=O)O
# Tests used:
# Assay in all cases: cAMP activity assay in assay medium (assay 1)
# Format in all cases: cell-based
# [1] = target: T1, Human GIPr (Homo sapiens, UniProt P48546); conditions: assay medium; Table 4; read-out: hGIPR EC50
# T1 construct: expressed in transfected cells
# T1 sequence (P48546 22-466): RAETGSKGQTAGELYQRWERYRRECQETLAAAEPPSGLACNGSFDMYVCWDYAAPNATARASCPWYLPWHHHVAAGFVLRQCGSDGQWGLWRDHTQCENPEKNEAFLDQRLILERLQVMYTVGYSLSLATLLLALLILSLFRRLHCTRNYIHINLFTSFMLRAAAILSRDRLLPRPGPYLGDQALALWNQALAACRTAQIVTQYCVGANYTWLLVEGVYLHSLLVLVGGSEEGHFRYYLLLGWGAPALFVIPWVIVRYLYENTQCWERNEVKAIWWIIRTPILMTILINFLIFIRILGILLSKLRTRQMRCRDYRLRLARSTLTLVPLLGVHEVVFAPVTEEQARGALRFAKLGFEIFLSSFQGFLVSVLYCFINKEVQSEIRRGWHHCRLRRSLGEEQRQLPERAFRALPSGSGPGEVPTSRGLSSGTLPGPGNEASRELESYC
# Description: (§1) Biological Activity of Peptides in Cell-Based cAMP Activity Assay (Assay 1):
# (§2) All sample dilutions were made in duplicate.
# [2] = target: Human GLP1R (Homo sapiens, UniProt P43220); parameters: expressed in transfected cells; conditions: assay medium; Table 4; read-out: hGLP1R EC50
# Description: as §1, §2
# [3] = target: T2, Human GlucR (Homo sapiens, UniProt P47871); conditions: assay medium; Table 4; read-out: hGlucR EC50
# T2 construct: expressed in transfected cells
# Description: as §1, §2
# T2 sequence (P47871 26-477): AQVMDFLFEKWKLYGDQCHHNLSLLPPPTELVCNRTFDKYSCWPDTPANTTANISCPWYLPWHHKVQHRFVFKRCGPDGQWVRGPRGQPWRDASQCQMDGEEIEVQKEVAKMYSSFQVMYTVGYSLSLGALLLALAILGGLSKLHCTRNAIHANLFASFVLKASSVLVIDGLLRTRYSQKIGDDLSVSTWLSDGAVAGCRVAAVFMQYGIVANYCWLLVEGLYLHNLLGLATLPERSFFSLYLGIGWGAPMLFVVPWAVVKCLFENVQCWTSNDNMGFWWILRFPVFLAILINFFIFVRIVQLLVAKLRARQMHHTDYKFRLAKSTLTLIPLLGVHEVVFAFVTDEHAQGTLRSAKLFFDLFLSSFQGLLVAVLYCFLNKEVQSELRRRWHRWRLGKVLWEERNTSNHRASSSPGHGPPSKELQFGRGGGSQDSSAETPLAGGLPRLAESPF
# Sequence of Human GLP1R (P43220 24-463): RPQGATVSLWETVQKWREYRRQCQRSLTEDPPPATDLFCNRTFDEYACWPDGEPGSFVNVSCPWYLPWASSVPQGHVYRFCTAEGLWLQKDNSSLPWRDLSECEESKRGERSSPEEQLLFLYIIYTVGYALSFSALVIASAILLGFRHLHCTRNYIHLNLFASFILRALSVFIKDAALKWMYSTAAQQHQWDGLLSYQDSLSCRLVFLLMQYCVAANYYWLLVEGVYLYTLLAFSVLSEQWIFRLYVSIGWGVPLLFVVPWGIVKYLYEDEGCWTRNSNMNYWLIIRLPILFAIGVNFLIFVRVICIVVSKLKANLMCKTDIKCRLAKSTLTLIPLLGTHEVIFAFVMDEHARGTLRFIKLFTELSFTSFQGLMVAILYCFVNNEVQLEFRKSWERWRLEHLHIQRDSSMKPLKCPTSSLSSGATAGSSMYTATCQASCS
Compound,EC50 [1] [nM],EC50 [2] [nM],EC50 [3]
CCCCCCCCCCCCCCCC(=O)N[C@@H](CCC(=O)NCCCC[C@H](NC(=O)[C@H](Cc1ccc(O)cc1)NC(=O)[C@H](CCCCN)NC(=O)[C@H](CO)NC(=O)[C@H](Cc1ccc(O)cc1)NC(=O)[C@H](CC(=O)O)NC(=O)[C@H](CO)NC(=O)[C@@H](NC(=O)[C@H](Cc1ccccc1)NC(=O)[C@@H](NC(=O)CNC(=O)[C@H](CCC(N)=O)NC(=O)[C@H](CO)NC(=O)[C@@H](N)Cc1c[nH]cn1)[C@@H](C)O)[C@@H](C)O)C(=O)N[C@@H](CC(=O)O)C(=O)N[C@@H](CO)C(=O)N[C@@H](CCCNC(=N)N)C(=O)N[C@@H](CCCNC(=N)N)C(=O)N[C@@H](C)C(=O)N[C@@H](CCC(N)=O)C(=O)N[C@@H](CC(=O)O)C(=O)N[C@@H](Cc1ccccc1)C(=O)N[C@H](C(=O)N[C@@H](CCC(N)=O)C(=O)N[C@@H](Cc1c[nH]c2ccccc12)C(=O)N[C@@H](CC(C)C)C(=O)N[C@@H](CCC(=O)O)C(=O)N[C@@H](C)C(=O)NCC(=O)NCC(N)=O)C(C)C)C(=O)O [g601] (H-HSQGTFTSDYSKYK([γGlu-Palmitoyl])DSRRAQDFVQWLEAGG-NH2; N-terminus assumed),74.1,0.0398,–
CCCCCCCCCCCCCCCC(=O)N[C@@H](CCC(=O)NCCCC[C@H](NC(=O)[C@H](CO)NC(=O)[C@H](CC(=O)O)NC(=O)[C@H](CC(C)C)NC(=O)[C@H](Cc1ccc(O)cc1)NC(=O)[C@H](CCCCN)NC(=O)[C@H](CO)NC(=O)[C@H](Cc1ccc(O)cc1)NC(=O)[C@H](CC(=O)O)NC(=O)[C@H](CO)NC(=O)[C@@H](NC(=O)[C@H](Cc1ccccc1)NC(=O)[C@@H](NC(=O)CNC(=O)[C@H](CCC(N)=O)NC(=O)CNC(=O)[C@@H](N)Cc1c[nH]cn1)[C@@H](C)O)[C@@H](C)O)C(=O)N[C@@H](CCCNC(=N)N)C(=O)N[C@@H](C)C(=O)N[C@@H](C)C(=O)N[C@@H](CC(=O)O)C(=O)N[C@@H](Cc1ccccc1)C(=O)N[C@H](C(=O)N[C@@H](C)C(=O)N[C@@H](Cc1c[nH]c2ccccc12)C(=O)N[C@@H](CC(C)C)C(=O)N[C@H](C(=O)N[C@@H](C)C(=O)NCC(=O)NCC(N)=O)C(C)C)C(C)C)C(=O)O [g736] (H-HGQGTFTSDYSKYLDSK([γGlu-Palmitoyl])RAADFVAWLVAGG-NH2; N-terminus assumed),–,0.0854,0.919 nM and 0.92 nM
CCCCCCCCCCCCCCCC(=O)N[C@@H](CCC(=O)NCCCC[C@H](NC(=O)[C@H](CO)NC(=O)[C@H](CC(=O)O)NC(=O)[C@H](CC(C)C)NC(=O)[C@H](Cc1ccc(O)cc1)NC(=O)[C@H](CCCCN)NC(=O)[C@H](CO)NC(=O)[C@H](Cc1ccc(O)cc1)NC(=O)[C@H](CC(=O)O)NC(=O)[C@H](CO)NC(=O)[C@@H](NC(=O)[C@H](Cc1ccccc1)NC(=O)[C@@H](NC(=O)CNC(=O)[C@H](CCC(=O)O)NC(=O)CNC(=O)[C@@H](N)Cc1c[nH]cn1)[C@@H](C)O)[C@@H](C)O)C(=O)N[C@@H](CCCNC(=N)N)C(=O)N[C@@H](C)C(=O)N[C@@H](C)C(=O)N[C@@H](CC(=O)O)C(=O)N[C@@H](Cc1ccccc1)C(=O)N[C@H](C(=O)N[C@@H](C)C(=O)N[C@@H](Cc1c[nH]c2ccccc12)C(=O)N[C@@H](CC(C)C)C(=O)N[C@H](C(=O)N[C@@H](C)C(=O)NCC(=O)NCC(N)=O)C(C)C)C(C)C)C(=O)O [g737] (H-HGEGTFTSDYSKYLDSK([γGlu-Palmitoyl])RAADFVAWLVAGG-NH2; N-terminus assumed),–,0.0814,734 nM
CCCCCCCCCCCCCCCC(=O)N[C@@H](CCC(=O)NCCCC[C@H](NC(=O)[C@H](C)NC(=O)[C@H](CCCNC(=N)N)NC(=O)[C@H](CCCNC(=N)N)NC(=O)[C@H](CO)NC(=O)[C@H](CC(=O)O)NC(=O)[C@H](CC(C)C)NC(=O)[C@H](Cc1ccc(O)cc1)NC(=O)[C@H](CCCCN)NC(=O)[C@H](CO)NC(=O)[C@H](Cc1ccc(O)cc1)NC(=O)[C@H](CC(=O)O)NC(=O)[C@H](CO)NC(=O)[C@@H](NC(=O)[C@H](Cc1ccccc1)NC(=O)[C@@H](NC(=O)CNC(=O)[C@H](CCC(N)=O)NC(=O)[C@H](CO)NC(=O)[C@@H](N)Cc1c[nH]cn1)[C@@H](C)O)[C@@H](C)O)C(=O)N[C@@H](CC(=O)O)C(=O)N[C@@H](Cc1ccccc1)C(=O)N[C@H](C(=O)N[C@@H](CCC(N)=O)C(=O)N[C@@H](Cc1c[nH]c2ccccc12)C(=O)N[C@@H](CC(C)C)C(=O)N[C@@H](CCC(=O)O)C(=O)N[C@@H](C)C(=O)NCC(=O)NCC(N)=O)C(C)C)C(=O)O [g744],–,2.45,0.0392 nM
HSQGTFTSDYSKYLDSRRAQDFVQWLVRGGPSSGAPPPSK-NH2 [g319],–,0.0361,0.0104 nM

# Now from value to compound:
EC50 [1] [nM],EC50 [2] [nM],EC50 [3],Compound
126,0.0159,–,CCCCCCCCCCCCCCCC(=O)NCCCCCC(=O)NCCCC[C@H](NC(=O)[C@H](CO)NC(=O)[C@H](CC(=O)O)NC(=O)[C@H](CC(C)C)NC(=O)[C@H](Cc1ccc(O)cc1)NC(=O)[C@H](CCC(=O)O)NC(=O)[C@H](CO)NC(=O)[C@H](Cc1ccc(O)cc1)NC(=O)[C@H](CC(=O)O)NC(=O)[C@H](CO)NC(=O)[C@@H](NC(=O)[C@H](Cc1ccccc1)NC(=O)[C@@H](NC(=O)CNC(=O)[C@H](CCC(N)=O)NC(=O)CNC(=O)[C@@H](N)Cc1c[nH]cn1)[C@@H](C)O)[C@@H](C)O)C(=O)N[C@@H](CCCNC(=N)N)C(=O)N[C@@H](C)C(=O)N[C@@H](C)C(=O)N[C@@H](CC(=O)O)C(=O)N[C@@H](Cc1ccccc1)C(=O)N[C@H](C(=O)N[C@@H](C)C(=O)N[C@@H](Cc1c[nH]c2ccccc12)C(=O)N[C@@H](CC(C)C)C(=O)N[C@@H](CCC(=O)O)C(=O)N[C@@H](CCCNC(=N)N)C(=O)NCC(=O)NCC(N)=O)C(C)C [g683]
–,11.5,0.0354 nM,CCCCCCCCCCCCCCCC(=O)N[C@@H](CCC(=O)NCCCC[C@H](NC(=O)[C@@H](NC(=O)[C@H](Cc1ccccc1)NC(=O)[C@H](CC(=O)O)NC(=O)[C@H](CCC(N)=O)NC(=O)[C@H](C)NC(=O)[C@H](CCCNC(=N)N)NC(=O)[C@H](CCCNC(=N)N)NC(=O)[C@H](CO)NC(=O)[C@H](CC(=O)O)NC(=O)[C@H](CC(C)C)NC(=O)[C@H](Cc1ccc(O)cc1)NC(=O)[C@H](CCCCN)NC(=O)[C@H](CO)NC(=O)[C@H](Cc1ccc(O)cc1)NC(=O)[C@H](CC(=O)O)NC(=O)[C@H](CO)NC(=O)[C@@H](NC(=O)[C@H](Cc1ccccc1)NC(=O)[C@@H](NC(=O)CNC(=O)[C@H](CCC(N)=O)NC(=O)[C@H](CO)NC(=O)[C@@H](N)Cc1c[nH]cn1)[C@@H](C)O)[C@@H](C)O)C(C)C)C(=O)N[C@@H](Cc1c[nH]c2ccccc12)C(=O)N[C@@H](CC(C)C)C(=O)N[C@@H](CCC(=O)O)C(=O)N[C@@H](C)C(=O)NCC(=O)NCC(N)=O)C(=O)O [g746]
–,6.65,0.0436 nM,CCCCCCCCCCCCCCCC(=O)NCCCCCC(=O)NCCCC[C@H](NC(=O)[C@H](C)NC(=O)[C@H](CCCNC(=N)N)NC(=O)[C@H](CCC(=O)O)NC(=O)[C@H](CO)NC(=O)[C@H](CC(=O)O)NC(=O)[C@H](CC(C)C)NC(=O)[C@H](Cc1ccc(O)cc1)NC(=O)[C@H](CCCCN)NC(=O)[C@H](CO)NC(=O)[C@H](Cc1ccc(O)cc1)NC(=O)[C@H](CC(=O)O)NC(=O)[C@H](CO)NC(=O)[C@@H](NC(=O)[C@H](Cc1ccccc1)NC(=O)[C@@H](NC(=O)CNC(=O)[C@H](CCC(N)=O)NC(=O)[C@H](CO)NC(=O)[C@@H](N)Cc1c[nH]cn1)[C@@H](C)O)[C@@H](C)O)C(=O)N[C@@H](CC(=O)O)C(=O)N[C@@H](Cc1ccccc1)C(=O)N[C@H](C(=O)N[C@@H](C)C(=O)N[C@@H](Cc1c[nH]c2ccccc12)C(=O)N[C@@H](CC(C)C)C(=O)N[C@@H](CCC(=O)O)C(=O)N[C@@H](CCCNC(=N)N)C(=O)NCC(=O)NCC(N)=O)C(C)C [g787] (H-HSQGTFTSDYSKYLDSERAK([Ahx-Palmitoyl])DFVAWLERGG-NH2; N-terminus assumed)
–,0.0558,0.00463 nM,CCCCCCCCCCCCCCCC(=O)N[C@@H](CCC(=O)NCCCC[C@H](NC(=O)[C@H](Cc1ccc(O)cc1)NC(=O)[C@H](CCCNC(=N)N)NC(=O)[C@H](CO)NC(=O)[C@H](Cc1ccc(O)cc1)NC(=O)[C@H](CC(=O)O)NC(=O)[C@H](CO)NC(=O)[C@@H](NC(=O)[C@H](Cc1ccccc1)NC(=O)[C@@H](NC(=O)CNC(=O)[C@H](CCC(N)=O)NC(=O)[C@H](CO)NC(=O)[C@@H](N)Cc1c[nH]cn1)[C@@H](C)O)[C@@H](C)O)C(=O)N[C@@H](CC(=O)O)C(=O)N[C@@H](CO)C(=O)N[C@@H](CCC(=O)O)C(=O)N[C@@H](CCCNC(=N)N)C(=O)N[C@@H](C)C(=O)N[C@@H](CCCNC(=N)N)C(=O)N[C@@H](CC(=O)O)C(=O)N[C@@H](Cc1ccccc1)C(=O)N[C@H](C(=O)N[C@@H](C)C(=O)N[C@@H](Cc1c[nH]c2ccccc12)C(=O)N[C@@H](CC(C)C)C(=O)N[C@H](C(=O)N[C@@H](C)C(=O)NCC(=O)NCC(N)=O)C(C)C)C(C)C)C(=O)O [g821]
